Data: patent US20020132812A1, “Oral hypoglycaemic agents” (priority 2000, published 2002)
Values joined by “and” are separate entries in the source; they are usually repeats but may differ in a detail not shown here. Equal values may be shown once.

Key:
Format in all cases: cell-based
mouse pancreatic β-cells = assay: Ca2+-evoked exocytosis (cell capacitance, whole-cell patch clamp) in single mouse pancreatic β-cells; settings: 100 μM compound in pipette solution, free Ca2+ 0.2 μM
Text: (§1) Pancreatic islets were isolated from fed NMRI mice (15-23 g). Briefly, the mice were stunned by a blow against the head and killed by cervical dislocation. The pancreas was quickly removed and pancreatic islets were isolated by collagenase (Sigma) digestion (Gromada et al. J. Physiol., Vol. 518 (3) pp. 745-759, 1999). For insulin release experiments, the islets were kept in RPMI-1640 tissue culture medium overnight before use. […]
(§2) Patch pipettes were drawn from borosilicate glass capillaries. […] The currents were recorded using an Axopatch 200B patch clamp amplifier (Axon Instruments, Foster City, Calif., USA), digitized and stored in a computer using the Digidata AD-converter and the software pClamp (version 6.0; Axon Instruments). Alternatively, KATP-currents were recorded using an EPC-9 patch clamp amplifier and the Pulse software (v. 8.01; HEKA Elektronik, Lamprecht/Pfalz, Germany). Exocytosis was monitored as increases in cell membrane capacitance (Neher & Marty Proc. Natl. Acad, Sci. USA, Vol. 79, pp. 6712-6716,1982) using the standard whole-cell configuration of the patch-clamp technique and an EPC-9 patch-clamp amplifier and the Pulse software (v. 8.01; HEKA Elektronik). […]

[1] = molecular target: T1, ATP-sensitive K+-channels (KATP-channels) (Mus musculus, UniProt Q61743); assay: Whole-cell ATP-sensitive K+ current (KATP-channel activity) in single mouse β-cells; settings: 100 μM compound; six experiments; cells dialysed with 0.3 mM ATP and 0.3 mM ADP
T1 construct: Pancreatic islets were isolated from fed NMRI mice (15-23 g); endogenous in cells; host or cells: single beta-cells dispersed from pancreatic islets of NMRI mice
T1 sequence (Q61743 whole entry): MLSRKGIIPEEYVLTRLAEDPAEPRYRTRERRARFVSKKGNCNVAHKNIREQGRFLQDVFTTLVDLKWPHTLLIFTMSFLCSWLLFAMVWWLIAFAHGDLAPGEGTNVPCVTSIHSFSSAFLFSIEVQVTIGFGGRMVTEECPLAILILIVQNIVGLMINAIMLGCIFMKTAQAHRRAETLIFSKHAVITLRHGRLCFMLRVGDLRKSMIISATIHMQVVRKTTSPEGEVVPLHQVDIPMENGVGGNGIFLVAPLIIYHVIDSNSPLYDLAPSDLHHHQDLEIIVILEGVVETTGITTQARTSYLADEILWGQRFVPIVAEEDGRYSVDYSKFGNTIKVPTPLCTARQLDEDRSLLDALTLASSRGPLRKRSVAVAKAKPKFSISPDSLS
T1 sequence (B2RUS7 1-1588 partner): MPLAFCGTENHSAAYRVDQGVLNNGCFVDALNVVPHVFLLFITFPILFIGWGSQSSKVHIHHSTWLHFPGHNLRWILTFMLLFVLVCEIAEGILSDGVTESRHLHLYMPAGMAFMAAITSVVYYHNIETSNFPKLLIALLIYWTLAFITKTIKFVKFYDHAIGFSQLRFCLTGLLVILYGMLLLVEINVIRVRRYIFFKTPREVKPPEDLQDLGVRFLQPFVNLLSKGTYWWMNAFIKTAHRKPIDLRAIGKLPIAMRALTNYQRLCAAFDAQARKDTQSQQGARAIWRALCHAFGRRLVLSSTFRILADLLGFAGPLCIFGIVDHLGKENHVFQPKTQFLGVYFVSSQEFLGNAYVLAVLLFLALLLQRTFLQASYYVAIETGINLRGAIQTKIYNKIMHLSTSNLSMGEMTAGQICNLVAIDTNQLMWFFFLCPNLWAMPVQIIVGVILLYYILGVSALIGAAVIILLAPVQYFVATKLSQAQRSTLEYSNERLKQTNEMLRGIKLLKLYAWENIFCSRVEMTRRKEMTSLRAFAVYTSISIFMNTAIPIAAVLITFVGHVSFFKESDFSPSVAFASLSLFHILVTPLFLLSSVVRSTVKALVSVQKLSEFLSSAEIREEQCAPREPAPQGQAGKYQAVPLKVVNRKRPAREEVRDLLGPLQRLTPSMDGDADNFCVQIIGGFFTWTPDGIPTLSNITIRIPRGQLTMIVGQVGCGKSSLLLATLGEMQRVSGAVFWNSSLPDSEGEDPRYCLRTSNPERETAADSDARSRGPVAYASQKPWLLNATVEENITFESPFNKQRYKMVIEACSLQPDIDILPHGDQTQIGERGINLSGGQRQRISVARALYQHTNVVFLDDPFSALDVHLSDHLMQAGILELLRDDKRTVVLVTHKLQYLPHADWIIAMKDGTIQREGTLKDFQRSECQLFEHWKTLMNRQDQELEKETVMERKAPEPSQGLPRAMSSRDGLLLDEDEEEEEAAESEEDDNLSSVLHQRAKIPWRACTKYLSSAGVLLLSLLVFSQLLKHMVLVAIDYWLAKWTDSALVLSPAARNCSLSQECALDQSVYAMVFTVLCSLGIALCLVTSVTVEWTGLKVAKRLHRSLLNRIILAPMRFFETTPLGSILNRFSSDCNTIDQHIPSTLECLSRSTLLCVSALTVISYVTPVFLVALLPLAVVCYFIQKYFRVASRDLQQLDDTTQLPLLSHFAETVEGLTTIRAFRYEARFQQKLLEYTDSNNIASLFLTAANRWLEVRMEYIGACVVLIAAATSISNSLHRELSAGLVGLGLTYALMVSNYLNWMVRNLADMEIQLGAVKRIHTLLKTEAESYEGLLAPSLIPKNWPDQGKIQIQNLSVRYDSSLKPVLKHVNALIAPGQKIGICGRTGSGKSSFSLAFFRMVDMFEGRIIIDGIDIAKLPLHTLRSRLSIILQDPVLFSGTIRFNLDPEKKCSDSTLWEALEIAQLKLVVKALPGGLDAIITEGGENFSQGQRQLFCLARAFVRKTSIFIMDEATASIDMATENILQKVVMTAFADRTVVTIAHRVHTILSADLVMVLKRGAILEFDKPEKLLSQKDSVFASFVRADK
Text: as §1, §2

intact mouse islets = assay: Insulin release from intact mouse islets (ELISA); settings: 100 μM compound, 60 min incubation
Protocol: Intact pancreatic islets were isolated from fed NMRI mice (15-18 g) as previously described (Fuhlendorff et al., Diabetes, Vol. 47 (3) pp. 345-351, 1998). Insulin release was measured from groups of 10 size-matched islets, cultured overnight in RPMI-1640 tissue culture medium containing 1% GlutaMAX™ (Gibco BRL),1% penicillin/streptomycin, 7.5% NaHCO3 and 10% new-born calf serum. The islets were washed for 20 minutes in Krebs Ringer Buffer consisting of 115 mM NaCl, 4.7 mM KCl, 2.6 mM CaCl2, 1.2 mM KH2PO4, 1.2 mM MgSO4, 20 mM HEPES, 2 mM glutamine, 5 mM NaHCO3, 0.2% human serum albumin and 1% penicillin/streptomycin) and 2.5 mM, 5 mM or 10 mM D-glucose. Afterwashing, the islet were incubated for one hour at +37° C. in Krebs Ringer Buffer containing the test compound at 100 μM and glucose at 2.5 mM, 5 mM or 10 mM. After the one-hour incubation, the medium was aspirated and kept at −20° C. until assayed for insulin using the following ELISA technique. Immuno 96 well paltes (MaxiSorPTM, NUNC, Denmark) were coated over night at 4° C. with a rabbit-anti-guinea pig-lgG (Dako) antibody diluted 1:1000 in 0.1 M NaHCO3 (pH 9.8). After washing 4 times in 0.15 M NaCl and 0.005% Tween-20 the plates were incubated with guinea pig-anti-insulin diluted in phosphate buffered saline (incubation buffer; pH 7.4) containing 0.1% Tween-20 and 0.5% human serum albumin over night. After washing the sambles were incubated for 1.5 h with relevant samples and peroxidase-insulin (Sigma) diluted 1:10000 in PBS-DIL. The samples we-were then washed and developed with TMBPlus-substrated as described by the manufacture (KEM EN TEC, Denmark). The amount of insulin was quantified from a standard curve after reading the samples at 450 nm.
Elevating the external glucose concentration from 2.5 mM to 5 mM was not associated with an increase in insulin release whereas a 90% stimulation was observed following application of 10 mM glucose (P<0.05; n=8).

In the case of `COc1cccc(C(CC2=NCCN2)c2ccccn2)c1` (single isomer, unassigned; (-)) [compound (Ex 2), (−)-2-(2-(4,5-Dihydro-1H-imidazol-2-yl)-1-(3-methoxyphenyl)ethyl)pyridine], the “effect on Ca2+-evoked exocytosis (in words)” value (mouse pancreatic β-cells) is reported as “strong stimulation of exocytosis”, the “rate of exocytosis (ΔCm/Δt) measured over the first 60 s after establishment of the whole-cell configuration” value (mouse pancreatic β-cells; control 5.0±0.3 fF/s, P<0.025) is reported as 9.4±1.7 fF/s and the “whole-cell KATP current / channel activity, % of prestimulatory level” value [1] is reported as 90±4% and 90+4%. For the same compound, the “effect on insulin release” value (intact mouse islets; 2.5 mM glucose) was “does not affect insulin release”, the “effect on insulin release” value (intact mouse islets; 5 mM glucose) was “does not affect insulin release” and the “stimulation of insulin secretion” value (intact mouse islets; 10 mM glucose, P<0.01, n=8) was 220%.
